Test results taken from the supplement of paper PMC4862054.

What was measured:
Test in all cases: drug sensitivity score (DSS), CellTox Green (DSS (AUC-based score)); higher = stronger drug effect (viability inhibition or cytotoxicity); extreme values may be limits of the assay
Settings in all cases: incubation time: 72 h
MDA-MB-436 = test system: MDA-MB-436
Procedure, shortened: (§1)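 Compound was dispensed into 384-well plates at 5 concentrations in 10-fold steps spanning a 10,000-fold range chosen for each compound, and 20 µl of breast cancer cell suspension was added before 72 h of incubation. CellTox Green fluorescence was read at 485/520 nm, followed by CellTiter-Glo luminescence after 10 min at room temperature. Values on each plate were normalised to 0.1 % DMSO and a positive kill control. The drug sensitivity score came from the area under the fitted dose-response curve.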

MFM-223 = test system: MFM-223
Procedure, shortened: as §1

BT-474 = test system: BT-474
Procedure, shortened: as §1

MCF-10A = test system: MCF-10A
Procedure, shortened: as §1

CAL-51 = test system: CAL-51
Procedure, shortened: as §1

DU-4475 = test system: DU-4475
Procedure, shortened: as §1

HCC1143 = test system: HCC1143
Procedure, shortened: as §1

BT-549 = test system: BT-549
Procedure, shortened: as §1

MDA-MB-468 = test system: MDA-MB-468
Procedure, shortened: as §1

CAL-120 = test system: CAL-120
Procedure, shortened: as §1

HDQ-P1 = test system: HDQ-P1
Procedure, shortened: as §1

CAL-148 = test system: CAL-148
Procedure, shortened: as §1

HCC1599 = test system: HCC1599
Procedure, shortened: as §1

MDA-MB-453 = test system: MDA-MB-453
Procedure, shortened: as §1

CAL-85-1 = test system: CAL-85-1
Procedure, shortened: as §1

| Compound | drug sensitivity score (MDA-MB-436) | drug sensitivity score (MFM-223) | drug sensitivity score (BT-474) | drug sensitivity score (MCF-10A) | drug sensitivity score (CAL-51) | drug sensitivity score (DU-4475) | drug sensitivity score (HCC1143) | drug sensitivity score (BT-549) | drug sensitivity score (MDA-MB-468) | drug sensitivity score (CAL-120) | drug sensitivity score (HDQ-P1) | drug sensitivity score (CAL-148) | drug sensitivity score (HCC1599) | drug sensitivity score (MDA-MB-453) | drug sensitivity score (CAL-85-1) |
| --- | --- | --- | --- | --- | --- | --- | --- | --- | --- | --- | --- | --- | --- | --- | --- |
| CN1CCC(COc2cnc(-c3cccc(Cn4nc(-c5cccc(C#N)c5)ccc4=O)c3)nc2)CC1 | 0 | 0 | 0 | 0 | 0 | 0 | 0 | 0 | 0 | 0 | 0 | 0 | 0 | 0 | 0.655 |
| CN(C)C/C=C/C(=O)Nc1cc2c(Nc3ccc(F)c(Cl)c3)ncnc2cc1O[C@H]1CCOC1 [Afatinib] | 0 | 0 | 3.66 | 0 | 0 | 0 | 1.18 | 0 | 0 | 0 | 0 | 0 | 0 | 0 | 8 |
| COc1cc(Nc2ncc3c(n2)-c2ccc(Cl)cc2C(c2c(F)cccc2OC)=NC3)ccc1C(=O)O [Alisertib] | 0 | 0 | 2.03 | 3.47 | 27.9 | 0 | 0 | 5.31 | 32.7 | 0 | 0 | 9.1 | 0 | 0 | 1.48 |
| CN1CC[C@H](c2c(O)cc(O)c3c(=O)cc(-c4ccccc4Cl)oc23)[C@H](O)C1 [Alvocidib] | 0 | 7.92 | 0.211 | 16.1 | 4.44 | 0 | 0 | 2.81 | 0 | 1.81 | 7.43 | 0 | 0 | 0 | 15.3 |
| Nc1nc(Cl)nc2c1ncn2[C@H]1C[C@H](O)[C@@H](CO)O1 [Cladribine] | 0 | 3.32 | 0 | 0 | 0 | 0 | 1.86 | 0 | 14.3 | 0 | 0 | 0 | 0 | 0 | 0 |
| Nc1ccn([C@@H]2O[C@H](CO)[C@@H](O)[C@@H]2O)c(=O)n1 [Cytarabine] | 0 | 0 | 0 | 0.944 | 13.1 | 0 | 0 | 0 | 0 | 0 | 0 | 7.92 | 0 | 0 | 0 |
| Cc1c2oc3c(C)ccc(C(=O)N[C@@H]4C(=O)N[C@H](C(C)C)C(=O)N5CCC[C@H]5C(=O)N(C)CC(=O)N(C)[C@@H](C(C)C)C(=O)O[C@@H]4C)c3nc-2c(C(=O)N[C@@H]2C(=O)N[C@H](C(C)C)C(=O)N3CCC[C@H]3C(=O)N(C)CC(=O)N(C)[C@@H](C(C)C)C(=O)O[C@@H]2C)c(N)c1=O [Dactinomycin] | 0 | 4.62 | 2.02 | 15.4 | 22.9 | 0 | 1.67 | 6.35 | 10.7 | 0 | 0 | 21.3 | 0 | 0 | 16.4 |
| COc1cccc2c1C(=O)c1c(O)c3c(c(O)c1C2=O)C[C@@](O)(C(=O)CO)C[C@@H]3O[C@H]1C[C@H](N)[C@H](O)[C@H](C)O1 [Doxorubicin] | 0 | 1.83 | 0 | 0 | 10.9 | 0 | 0 | 0 | 5.83 | 0 | 0 | 1.99 | 0 | 0 | 1.33 |
| Cc1ccc(F)c(NC(=O)Nc2ccc(-c3cccc4[nH]nc(N)c34)cc2)c1 [Linifanib] | 0 | 0 | 0 | 0 | 0 | 0 | 0 | 0 | 0 | 0 | 0 | 0 | 0 | 0 | 0 |
| CC(=O)O[C@]1(C(C)=O)CC[C@H]2[C@@H]3C=C(C)C4=CC(=O)CC[C@]4(C)[C@H]3CC[C@@]21C [Megestrol acetate] | 0 | 0 | 0 | 0 | 0 | 0 | 0 | 0 | 0 | 0 | 1.18 | 0 | 0 | 0 | 0 |
| S=c1[nH]cnc2nc[nH]c12 [Mercaptopurine] | 0 | 0 | 0 | 0 | 0 | 0 | 0 | 0 | 0 | 0 | 0 | 0 | 0 | 0 | 0 |
